The values that follow come from article PMC11983575, “Study on the synthesis and biological activity of kojic acid triazol thiosemicarbazide Schiff base derivatives” (Journal of Enzyme Inhibition and Medicinal Chemistry, 2025).

One test deals with T1, tyrosinase (Agaricus bisporus, UniProt C7FF04).
T1 construct: purchased Sigma-Aldrich Chemical Co. (Shanghai, China)
Nature of the test: Fluorescence quenching of tyrosinase (Stern-Volmer). It counts as binding. The settings on record: for KSV / Kq: Stern-Volmer. As for the experimental part: To investigate fluorescence quenching role of inhibitor to the tyrosinase, fluorescence experiments were carried according to the reported method. To determine the linear concentration range of the fluorescence, compound 6w was first dissolved in DMSO. The concentration of the solution was 10 mM, and then was diluted with sodium phosphate buffer. The ultimate concentration was changed from 0 to 50 μM. A series of 3 ml solutions containing 1.5 ml of tyrosinase solution were added to a centrifuge tube and then accurately mixed with different concentrations of 6w solution range from 0 to 50 μM. Cary Eclipse G9800A fluorescence spectrophotometer (Agilent Technologies Co., Santa Clara, CA) was employed to detect the fluorescence intensity. The excitation wavelength was set to 280 nm, the bath was set as three temperatures (292 K, 298 K, and 304 K) with a scanning wavelength change from 300 to 500 nm. The excitation and emission bandwidths were 5 nm. The final tyrosinase concentration was 0.05 mg/ml.
Fluorescence quenching means that some small molecule compounds bind to protein that can affect the fluorescence intensity of the fluorophore. Therefore, in order to obtain information about conformational changes of enzymes, fluorescence spectroscopy has become a very important research tool. With increasing concentrations of compound 6w, the dramatically decreasing fluorescence intensity of tyrosinase could be found. […] At the same time, there was no significant red shift or blue shift in the fluorescence emission peak of tyrosinase after the addition of compound 6w. […] The quenching of the intrinsic fluorescence provided a direct and clear evidence that the inhibitor 6w was capable of binding to tyrosinase, and the binding of 6w to tyrosinase led to change in the microenvironment around the fluorophore, and the detailed KSV values are summarised Table 2.
Figure 3. (A) Changes in the tyrosinase fluorescence at different concentrations of compound 6w (λex = 280 nm, T = 298 K). The final enzyme concentration was 0.05 mg/ml, and c (compound 6w) = 0 μM, 5 μM, 15 μM, 20 μM, 25 μM, 30 μM, 35 μM, 40 μM, 45 μM, and 50 μM for the curves from top to bottom, respectively. (B) The Stern–Volmer figure of compound 6w and tyrosinase at 292, 298, and 304 K.

Test [1] addresses T2, mushroom tyrosinase (Agaricus bisporus, UniProt C7FF04). Nature of the test: Tyrosinase kinetic analysis (Lineweaver-Burk plots). In kind it is biochemical. As for the experimental part:
To study the inhibition type of kojic acid-triazole derivatives, the investigation of inhibitory type of selected compound 6w on mushroom tyrosinase was carried out according to reported protocol. Compound 6w was used at the concentrations of […], respectively. Substrate L-DOPA concentration was between 500 µM and 1000 µM in the process of all kinetic study. Pre-incubation time and measurement time were the same as described in mushroom tyrosinase inhibition assay procedure. Lineweaver–Burk’s plots of inverse of velocities (1/V) versus inverse of substrate concentration 1/[S] µM^−1 were used to determine the type of enzyme inhibition.
Among the assessed kojic acid triazol thiosemicarbazide Schiff base derivatives, compound 6w expressed better tyrosinase inhibitory activity than the other compounds, in order to further explore the inhibition mechanism, the inhibitory type of the compound 6w on mushroom tyrosinase was decided by the Lineweaver–Burk double reciprocal plots. The Lineweaver–Burk plots were obtained by different concentrations of the compound 6w and the substrate (Figure 2(A)). The plots of 1/V versus 1/[S] gave a family of straight lines with different slopes. […] All of the straight lines intersected at a point in the second quadrant. […] The inhibition constant (Ki) of the compound was obtained by a plot of the slope versus the concentrations of the compound 6w, Kis of the compound was obtained by a plot of vertical intercept (1/Vm) versus the concentrations of the compound 6w, the results were shown in Figure 2(B,C). […] Compound 6w has a better binding with free enzyme.
Figure 2. Kinetic inhibition measurement of compound 6w. […] (A) The concentrations of compound 6w in the figure were 0, 0.5 μM, 1 μM, and 2 μM, respectively. (B) The secondary replot indicates the intercept versus the concentrations of compound 6w to define the inhibition constant Kis. (C) The secondary replot indicates the slope versus the concentrations of compound 6w to define the inhibition constant Ki.

Test [2] has as its target T2, mushroom tyrosinase. Nature of the test: In vitro mushroom tyrosinase inhibition (L-DOPA substrate). The conditions noted are these: 475 nm, read-out: IC50 (μM) ± SD, inhibitory tyrosinase activity. In kind it is biochemical. Here is the method:
The mushroom tyrosinase inhibitory activity was determined according to previous described method. Briefly, 168 μl of phosphate buffer (0.1 M, pH 6.8), 10 μl of mushroom tyrosinase (0.5 mg/ml, Sigma Chemical, St. Louis, MO) and 2 μl of the inhibitor solution were placed in the wells of a 96-well micro plate. After pre-incubation for 20 min at 37 °C, 20 μl of 2.0 mg/ml L-DOPA (3,4-dihydroxyphenylalanine, Sigma Chemical, St. Louis, MO) was added and the enzyme activity was measured at 475 nm every 60 s for 180 s in a Microplate Reader (Bio-Rad Laboratories, Inc., Hercules, CA). Kojic acid and phosphate buffer were respectively used as positive and negative control. The extent of inhibition by the test compounds was expressed as the percentage of concentration necessary to achieve 50% inhibition (IC50). The percentage of inhibition was calculated as follows: inhibitory rate (%) = [Ac − At)/Ac] × 100. Ac is the absorbance of the negative control and At is the absorbance of the test compound. Each concentration was analysed in three independent experiments run in triplicate. The IC50 values were determined by the data analysis software GraphPad Prism 8 (La Jolla, CA).
The tyrosinase inhibition measurements of compounds 6a–6x were carried out using L-DOPA as substrate. Kojic acid was selected as a positive control compound. […]. […] Moreover, inhibitory activity of compound with hydroxyl group at papa position is better than the inhibitory activity of compound with hydroxyl group at meta position, and inhibitory activity of compound with hydroxyl group at meta position is better than the inhibitory activity of compound with hydroxyl group at ortho position. […]. […] In addition, with the increase of atomic radius, the inhibitory activity gradually decreases. (3) The inhibitory activity of alkoxy substituted compound is better than that of alkyl substituted compound. (4) Comparing the tyrosinase inhibitory activity of compounds with halogen atom (6b–6d, 6q–6s) and compounds with methyl or methoxy (6e–6f, 6t–6u), when the hydrogen (R^2) was replaced by the methyl (R^2), the inhibitory activity was decreased.

T2 sequence (C7FF04 1-392): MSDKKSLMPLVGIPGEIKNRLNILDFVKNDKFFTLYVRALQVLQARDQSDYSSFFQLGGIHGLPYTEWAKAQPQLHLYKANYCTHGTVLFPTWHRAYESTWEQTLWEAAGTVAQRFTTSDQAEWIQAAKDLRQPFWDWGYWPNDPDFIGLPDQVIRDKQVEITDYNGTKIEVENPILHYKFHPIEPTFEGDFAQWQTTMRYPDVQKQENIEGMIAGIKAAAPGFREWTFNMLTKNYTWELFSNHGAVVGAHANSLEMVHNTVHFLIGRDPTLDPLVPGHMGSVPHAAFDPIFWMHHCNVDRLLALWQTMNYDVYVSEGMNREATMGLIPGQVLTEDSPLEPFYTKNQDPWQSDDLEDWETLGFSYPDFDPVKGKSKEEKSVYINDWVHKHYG
T1 sequence (C7FF04 1-392 limits assumed): as the sequence (C7FF04 1-392) above

Turning to “2-(1-(4-((1-((5-Hydroxy-4-oxo-4H-pyran-2-yl)methyl)-1H-1,2,3-triazol-5-yl)methoxy)phenyl)ethylidene)hydrazinecarbothioamide [Compound 6w]”, the fluorescence quenching mechanism result on tyrosinase (292, 298 and 304 K) is “dynamic quenching”. In addition, the KSV at tyrosinase (T 292 K) is 0.03005 L/µmol; at tyrosinase (T 298 K) it was 0.04605 L/µmol; on tyrosinase (T 304 K), 0.06529 L/µmol. Moreover, the Kq came to 3.0052e+13 M⁻¹ s⁻¹ at tyrosinase (T 292 K), 4.6048e+13 M⁻¹ s⁻¹ at tyrosinase (T 298 K) and 6.5292e+13 M⁻¹ s⁻¹ on tyrosinase (T 304 K). At mushroom tyrosinase [1] (Lineweaver-Burk double reciprocal plots), the inhibition type result was “mixed type inhibitor”. Also, the Ki (commonly the equilibrium dissociation constant of an inhibitor or competing ligand from its target) at mushroom tyrosinase [1] (from plot of slope versus concentration of 6w, free enzyme, read-out: inhibition constant Ki) was found to be 0.3 nM. The “inhibition constant Kis” value on mushroom tyrosinase [1] (from plot of vertical intercept (1/Vm) versus concentration of 6w) came out at 0.1997 µM. The IC50 (commonly the midpoint of a concentration-inhibition curve) on mushroom tyrosinase [2] turned out to be 0.94 ± 0.035 µM.
